Assay results reported in PMC4979060, “Structural basis of metallo-β-lactamase, serine-β-lactamase and penicillin-binding protein inhibition by cyclic boronates” (Nature Communications, 2016).

Columns and labels:
[1] = target: T1, BcII (Bacillus cereus, UniProt P04190); experiment: Fluorogenic β-lactamase inhibition assay (FC-5 substrate), BcII; type: biochemical; conditions: for IC50: 10 min preincubation
T1 construct: made in house; host or cells: E. coli
Protocol: (§1) Kinetic and inhibition analyses, and ^19F NMR studies[10] against bacterial β-lactamases were performed as described. The FC-5 cephalosporin[9] was used as substrate for BcII, VIM-2, IMP-1, NDM-1, SPM-1, TEM-1 and OXA-10, meropenem[28] for CphA and nitrocefin[34] for PBP 3 and PBP 5.
(§2) In brief IC50 values were determined by preincubation of the appropriate amount of enzyme with the cyclic boronates in the assay buffers for 10 min at room temperature prior to the initiation of the assay by the addition of the appropriate substrate. The enzyme concentrations used are the following: 1 nM BcII, 100 nM VIM-2, 10 nM IMP-1, 10 nM NDM-1, 1 nM SPM-1, 1 nM TEM-1, 1 nM OXA-10, 2.5 nM CphA, 4 μM PBP 3 and 5 μM PBP 5; note that the final concentrations are stated. The assay buffers used are the following: 50 mM HEPES, pH 7.2 supplemented with 1 μg BSA, 1 μg ZnSO4 and 0.01% Triton for BcII, VIM-2, IMP-1, NDM-1 and SPM-1, 15 mM MES, pH 6.5 for CphA, 50 mM HEPES, pH 7.2 supplemented with 200 mM NaCl and 0.01% Triton 100 for TEM-1, 100 mM sodium phosphate, pH 7.2 supplemented with 50 mM NaHCO3 and 0.01% Triton 100 for OXA-10 and 50 mM HEPES, pH 7.2 supplemented with 200 mM NaCl and 0.01% Triton 100 for PBP 3 and PBP 5. The amount of substrates used is the following: 5 μM for BcII, VIM-2, IMP-1, NDM-1 and SPM-1, 10 μM for TEM-1 and OXA-10, 125 μM for CphA and 25 μM for PBP 3 and PBP 5; note that the final concentrations are stated.
(§3) The experiments were performed using a PHERAstar FS microplate reader (BMG Labtech) at room temperature (24–25 °C). All enzymes and inhibitors were prepared in the specific assay buffer. The kinetic values in this study are the means from at least three independent measurements; at least nine different concentrations of the inhibitor were used to determine the kinetic parameters (IC50). The IC50 values were determined using the software package Graph Prism 5.

[2] = target: T2, VIM-2 (Escherichia coli, UniProt Q5U7L7); experiment: Fluorogenic β-lactamase inhibition assay (FC-5 substrate), VIM-2; type: biochemical; conditions: for IC50: 10 min preincubation
T2 construct: made in house; host or cells: E. coli
Protocol: as §1, §2, §3

[3] = target: T3, IMP-1 (Serratia marcescens, UniProt P52699); experiment: Fluorogenic β-lactamase inhibition assay (FC-5 substrate), IMP-1; type: biochemical
T3 construct: made in house; host or cells: E. coli
Protocol: as §1
In brief IC50 values were determined by preincubation of the appropriate amount of enzyme with the cyclic boronates in the assay buffers for 10 min at room temperature prior to the initiation of the assay by the addition of the appropriate substrate. The enzyme concentrations used are the following: 1 nM BcII, 100 nM VIM-2, 10 nM IMP-1, 10 nM NDM-1, 1 nM SPM-1, 1 nM TEM-1, 1 nM OXA-10, 2.5 nM CphA, 4 μM PBP 3 and 5 μM PBP 5; note that the final concentrations are stated. […]
The experiments were performed using a PHERAstar FS microplate reader (BMG Labtech) at room temperature (24–25 °C). […] The IC50 values were determined using the software package Graph Prism 5.

[4] = target: T4, NDM-1 (Klebsiella pneumoniae, UniProt C7C422); experiment: Fluorogenic β-lactamase inhibition assay (FC-5 substrate), NDM-1; type: biochemical; conditions: for IC50: 10 min preincubation
T4 construct: made in house; host or cells: E. coli
Protocol: as §1, §2, §3

[5] = target: SPM-1 (Pseudomonas aeruginosa, UniProt Q8G9Q0); experiment: Fluorogenic β-lactamase inhibition assay (FC-5 substrate), SPM-1; type: biochemical; conditions: for IC50: 10 min preincubation
Protocol: as §1, §2, §3

[6] = target: T5, CphA (Aeromonas hydrophila, UniProt P26918); experiment: B2 MBL inhibition assay (meropenem substrate), CphA; type: biochemical, Aeromonas hydrophilia; conditions: for IC50: 10 min preincubation
T5 construct: made in house; host or cells: E. coli
Protocol: as §1, §2, §3

[7] = target: T6, TEM-1 (Escherichia coli, UniProt P62593); experiment: Fluorogenic β-lactamase inhibition assay (FC-5 substrate), TEM-1; type: biochemical; conditions: for IC50: 10 min preincubation
T6 construct: made in house; host or cells: E. coli
Protocol: as §1, §2, §3

[8] = target: T7, OXA-10 (Pseudomonas aeruginosa, UniProt P14489); experiment: Fluorogenic β-lactamase inhibition assay (FC-5 substrate), OXA-10; type: biochemical; conditions: for IC50: 10 min preincubation
T7 construct: made in house; host or cells: E. coli
Protocol: as §1, §2, §3

[9] = target: T8, PBP 3 (Pseudomonas aeruginosa, UniProt G3XD46); experiment: PBP inhibition assay (nitrocefin substrate), PBP 3; type: biochemical; conditions: NI = no inhibition at 100 μM, read-out: IC50 (μM)/pIC50 (converted)
T8 construct: made in house; host or cells: E. coli
Protocol: as §1, §2, §3

Sequence of SPM-1 (Q8G9Q0 entry or part of it): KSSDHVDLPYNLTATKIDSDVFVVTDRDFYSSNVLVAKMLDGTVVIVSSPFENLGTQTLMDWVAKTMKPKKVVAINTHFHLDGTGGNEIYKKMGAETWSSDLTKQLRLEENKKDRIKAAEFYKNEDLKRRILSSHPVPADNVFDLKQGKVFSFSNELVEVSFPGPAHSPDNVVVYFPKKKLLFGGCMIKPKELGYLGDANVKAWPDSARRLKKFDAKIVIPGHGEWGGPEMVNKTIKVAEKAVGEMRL
T1 sequence (P04190 31-257): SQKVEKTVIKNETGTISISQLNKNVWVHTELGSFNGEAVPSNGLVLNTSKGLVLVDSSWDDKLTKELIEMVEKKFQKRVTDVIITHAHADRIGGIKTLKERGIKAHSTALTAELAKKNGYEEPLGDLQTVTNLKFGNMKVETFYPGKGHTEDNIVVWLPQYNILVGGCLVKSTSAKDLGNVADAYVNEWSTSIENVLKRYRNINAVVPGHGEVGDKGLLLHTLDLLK
T7 sequence (P14489 20-266, species assumed): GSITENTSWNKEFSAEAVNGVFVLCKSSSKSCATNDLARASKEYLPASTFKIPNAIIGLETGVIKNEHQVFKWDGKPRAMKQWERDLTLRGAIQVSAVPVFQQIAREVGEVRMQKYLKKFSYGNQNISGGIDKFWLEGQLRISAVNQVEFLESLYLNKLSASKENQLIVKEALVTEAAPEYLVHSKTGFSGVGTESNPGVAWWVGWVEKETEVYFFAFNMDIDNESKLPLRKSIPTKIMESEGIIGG
T8 sequence (G3XD46 whole entry): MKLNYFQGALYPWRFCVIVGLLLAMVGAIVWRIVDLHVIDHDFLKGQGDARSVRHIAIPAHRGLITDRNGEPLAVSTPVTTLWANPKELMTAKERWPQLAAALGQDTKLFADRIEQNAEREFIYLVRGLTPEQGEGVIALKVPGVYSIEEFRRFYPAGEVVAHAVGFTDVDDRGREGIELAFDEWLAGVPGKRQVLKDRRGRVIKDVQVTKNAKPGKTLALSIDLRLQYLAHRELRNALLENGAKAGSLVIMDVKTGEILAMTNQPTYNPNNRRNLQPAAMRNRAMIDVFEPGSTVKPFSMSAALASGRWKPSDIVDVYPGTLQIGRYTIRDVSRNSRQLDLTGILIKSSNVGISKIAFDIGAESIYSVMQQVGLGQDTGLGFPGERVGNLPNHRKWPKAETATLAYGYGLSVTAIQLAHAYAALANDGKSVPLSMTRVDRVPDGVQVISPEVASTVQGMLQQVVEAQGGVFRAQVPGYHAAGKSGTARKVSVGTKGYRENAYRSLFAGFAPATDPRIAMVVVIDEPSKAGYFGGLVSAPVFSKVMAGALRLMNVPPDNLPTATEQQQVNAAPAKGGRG
T5 sequence (P26918 28-254): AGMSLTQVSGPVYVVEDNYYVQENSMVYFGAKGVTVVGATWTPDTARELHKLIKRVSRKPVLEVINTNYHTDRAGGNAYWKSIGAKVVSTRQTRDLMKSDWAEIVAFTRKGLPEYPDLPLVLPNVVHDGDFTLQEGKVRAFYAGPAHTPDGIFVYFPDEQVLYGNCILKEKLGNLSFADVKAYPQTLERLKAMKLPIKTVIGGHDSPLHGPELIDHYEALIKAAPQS
T4 sequence (C7C422 29-270, looked up, species assumed): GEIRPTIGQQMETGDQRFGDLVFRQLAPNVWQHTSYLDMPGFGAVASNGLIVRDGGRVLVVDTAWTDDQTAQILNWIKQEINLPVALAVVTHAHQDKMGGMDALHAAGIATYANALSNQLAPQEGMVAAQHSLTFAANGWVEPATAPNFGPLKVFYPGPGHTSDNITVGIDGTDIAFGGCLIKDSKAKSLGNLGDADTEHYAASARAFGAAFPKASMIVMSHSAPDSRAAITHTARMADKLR
T6 sequence (P62593 24-286 limits assumed): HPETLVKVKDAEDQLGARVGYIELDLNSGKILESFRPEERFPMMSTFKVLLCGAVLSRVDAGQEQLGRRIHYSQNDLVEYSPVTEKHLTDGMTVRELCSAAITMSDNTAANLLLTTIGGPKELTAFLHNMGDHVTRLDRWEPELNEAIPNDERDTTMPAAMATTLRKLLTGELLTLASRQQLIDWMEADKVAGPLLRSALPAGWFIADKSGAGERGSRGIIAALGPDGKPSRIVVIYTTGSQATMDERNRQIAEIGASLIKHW
T3 sequence (P52699 19-246, looked up, species assumed): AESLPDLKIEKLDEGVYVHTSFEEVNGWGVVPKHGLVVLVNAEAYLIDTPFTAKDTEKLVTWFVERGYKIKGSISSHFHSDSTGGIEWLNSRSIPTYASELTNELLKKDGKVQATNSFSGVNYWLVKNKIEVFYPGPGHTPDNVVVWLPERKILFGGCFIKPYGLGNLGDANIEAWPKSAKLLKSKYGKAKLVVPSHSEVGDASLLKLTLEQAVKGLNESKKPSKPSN

Structure (SMILES) | pIC50 [1] | IC50 [1] | pIC50 [2] | IC50 [2] | pIC50 [3] | IC50 [4] | pIC50 [5] | IC50 [5] | pIC50 [6] | IC50 [6] | pIC50 [7] | IC50 [7] | pIC50 [8] | IC50 [8] | IC50 [9] | pIC50 [4]
O=C(N[C@H]1Cc2cccc(C(=O)O)c2O[B-]1(O)O)c1ccc(CN2CCNCC2)cc1 [compound 4] | 6.2 | 520 nM | 7.8 | 14 nM | 4.7 | 40 nM | 4.8 | 13900 nM | > 4 | > 100000 nM | 9.4 | 0.3 nM | 5.6 | 2260 nM | > 100 µM | –
NCCNCc1ccc(C(=O)N[C@H]2Cc3cccc(C(=O)O)c3O[B-]2(O)O)cc1 [compound 5] | 5.9 | 1140 nM | – | 2 nM | – | – | 4.4 | 36300 nM | > 4 | > 100000 nM | 8.1 | 6 nM | 4.9 | 12700 nM | > 100 µM | –
NCC1CCC(C(=O)N[C@H]2Cc3cccc(C(=O)O)c3O[B-]2(O)O)CC1 (stereo partly drawn) [compound 3] | 6.0 | 960 nM | 7.9 | 11 nM | – | 687 nM | 4.8 | 16000 nM | 4.68 | 20800 nM | 8.5 | 2 nM | 6.0 | 830 nM | > 100 µM | 6.1
